We go through one compound from paper PMC4251666 (ACS chemical biology, 2012).

The test relates to cytosolic cysteine proteases. Kind of test: Calpain activity assay in isolated renal cytosol. It is filed as biochemical, New Zealand White rabbits. To be noted: 10 μM, 50 μM SLLVY-AMC.

As to `CCCC[C@@H](C=O)NC(=O)[C@H](CC(C)C)NC(=O)OCc1ccccc1` [Calpeptin], the “inhibition of activity in isolated cytosol” value is reported as ~ 50%.
